Source: ChEMBL document CHEMBL3351981, “Eleganketal A, a highly oxygenated dibenzospiroketal from the marine-derived fungus Spicaria elegans KLA03” (J Nat Prod, 2014)

Assays:
[1] = Cytotoxicity against human HL60 cells; format: functional, cell-based; conditions: HL-60
K562 = assay: Cytotoxicity against human K562 cells; format: functional, cell-based
Influenza A virus = assay: Antiviral activity against influenza A virus (A/Puerto Rico/8/34(H1N1)) infected in MDCK cells assessed as inhibition of virus-induced cytopathic effect after 48 hrs by crystal violet staining assay; format: functional, organism-based; conditions: A/Puerto Rico/8/1934(H1N1)

Structure (SMILES)	IC50 [1]	IC50 (K562)	IC50 (Influenza A virus)
COc1c(C)c2c(c(OC)c1OC)C(=O)[C@]1(OC2)OCc2c(C)c(OC)c(OC)c(OC)c21	> 50 µM	> 50 µM	–
COc1c(C)c2c(c(OC)c1OC)C(=O)[C@@]1(OC2)OCc2c(C)c(OC)c(OC)c(OC)c21	> 50 µM	> 50 µM	149 µM
COc1c(C)c2c(c(OC)c1OC)C(=O)C1(OC2)OCc2c(C)c(OC)c(OC)c(OC)c21 (racemic)	> 50 µM	> 50 µM	–
NC(=O)c1ncn([C@@H]2O[C@H](CO)[C@@H](O)[C@H]2O)n1 [RIBAVIRIN]	–	–	101 µM
